Laboratory results: ChEMBL document CHEMBL3286181, “Pyridopyrimidinone inhibitors of HIV-1 RNase H” (Eur J Med Chem, 2014)
Values after ≈ are worked out from the molar mass of the structure shown. Active and inactive are the calls of the source. No cut-off for these calls is given here.

How the values were obtained:
[1] = target: Human immunodeficiency virus type 1 reverse transcriptase (Human immunodeficiency virus 1, UniProt Q72547); test: Inhibition of HIV1 reverse transcriptase RNase-H activity using dATP, dCTP, dTTP, [8-3H(N)]-dGTP, oligo1, oligo 2, oligo 3 as substrate preincubated for 30 mins followed by substrate addition measured after 90 mins
[2] = target: Human immunodeficiency virus type 1 reverse transcriptase (Human immunodeficiency virus 1) (UniProt Q72547); test: Inhibition of HIV1 reverse transcriptase DNA polymerase activity up to 10 uM
[3] = target: T1, Human immunodeficiency virus type 1 integrase (Human immunodeficiency virus 1, UniProt Q7ZJM1); test: Inhibition of recombinant HIV1 integrase bound with donor DNA-SPA beads using [3H] target DNA as substrate assessed as strand transfer activity preincubated for 60 mins followed by substrate addition measured after 25 to 45 mins
Rattus norvegicus = test: Dose normalized AUC in Sprague-Dawley (CD) rat at 1 mg/kg, iv; type: ADME, organism-based; set-up: dose 1 mg/kg, route intravenous; conditions: in vivo
[4] = target: T1, Human immunodeficiency virus type 1 integrase; test: Inhibition of HIV1 integrase strand transfer activity
[5] = tested on: Human immunodeficiency virus; test: microbe, parasite or virus in culture; conditions: Human immunodeficiency virus 1, HEK-293T, 48 h
Description: Antiviral activity against Vesicular stomatitis virus G-pseudotyped HIV infected in human 293T cells transfected with pGJ3-Luci after 2 days by single round infectivity assay

[6] = target: T1, Human immunodeficiency virus type 1 integrase; test: Inhibition of HIV1 integrase bound with donor DNA-SPA beads using 3'-end fluorescein isothiocyanate labeled target DNA as substrate assessed as strand transfer activity incubated prior to substrate addition
[7] = Permeability across MDCK cells; type: ADME, cell-based, Canis lupus familiaris; conditions: dog, read-out: permeability
[8] = Half life in Sprague-Dawley (CD) rat at 1 mg/kg, iv and 5 mg/kg, po; type: ADME, organism-based; conditions: in vivo
[9] = Solubility of the compound by chemiluminescent nitrogen detection method; type: physicochemical
[10] = Clearance in Sprague-Dawley (CD) rat at 1 mg/kg, iv relative to hepatic blood flow; type: ADME, organism-based, Liver; set-up: dose 1 mg/kg, route intravenous; conditions: in vivo, read-out: CLH
[11] = target: T1, Human immunodeficiency virus type 1 integrase; test: Inhibition of recombinant HIV1 N-terminal His6-tagged integrase expressed in Escherichia coli using 32P-labeled preprocessed HIV-1 U5 DNA as substrate assessed as strand transfer activity after 2 hrs by densitometric analysis
[12] = Inhibition of HIV1 reverse transcriptase strand transfer activity

T1 sequence (Q7ZJM1 whole entry): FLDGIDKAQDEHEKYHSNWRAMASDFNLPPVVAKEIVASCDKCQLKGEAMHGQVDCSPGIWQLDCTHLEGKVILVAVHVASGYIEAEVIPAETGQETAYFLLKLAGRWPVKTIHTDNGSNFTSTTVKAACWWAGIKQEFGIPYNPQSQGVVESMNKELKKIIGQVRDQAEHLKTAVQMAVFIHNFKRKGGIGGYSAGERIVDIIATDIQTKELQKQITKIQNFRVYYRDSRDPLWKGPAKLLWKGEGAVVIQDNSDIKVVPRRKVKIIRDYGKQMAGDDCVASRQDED

With `O=c1nc(N2CCC(F)(F)CC2)c2cccnc2n1O` the IC50 [1] was 0.501 µM, the inhibition [2] was “inactive” and the IC50 [3] was 7.94 µM.
With `O=c1nc(NCc2ccc(-c3ccncc3)cc2)c2cccnc2n1O` the IC50 [1] was 0.016 µM, the inhibition [2] was “inactive” and the AUC/dose (Rattus norvegicus) was 1000 ng·h/mL/mg. It also gave an IC50 [3] of 1.26 µM.
`O=C1Cc2ccccc2C(=O)N1O` showed an IC50 [4] greater than 5000 µM.
For `O=c1nc(NCc2cccc(N3CCOCC3)c2)c2cccnc2n1O`, the IC50 [1] was 0.2 µM, the inhibition [2] was “inactive” and the IC50 [5] was 0.38 µM. For the same compound, the IC50 [3] was 1.99 µM.
`O=C(NCc1ccc(F)cc1)c1nc(N2CCCCS2(=O)=O)c2cccnc2c1O` gave an IC50 [6] of 10 µM.
With `O=c1nc(NCc2cccc(CN3CCOCC3)c2)c2cccnc2n1O` the IC50 [1] was 0.398 µM, the inhibition [2] was “inactive” and the IC50 [5] was 0.3 µM. It also gave an IC50 [3] of 15.9 µM.
`O=c1nc(NCc2ccc(N3CCOCC3)cc2)c2cccnc2n1O` showed a Papp [7] of 14 nm/s, a half-life [8] of 4.5 h and an IC50 [1] of 0.1 µM. The solubility [9] was 293 µM (≈ 104 µg/mL), the inhibition [2] was “inactive” and the IC50 [5] was 0.47 µM. The AUC/dose (Rattus norvegicus) was 713 ng·h/mL/mg, the clearance [10] was 3.3 L/h/kg and the IC50 [3] was 1.58 µM.
`O=C(NCc1ccc(Cl)cc1)c1ncc2cccnc2c1O` gave an IC50 [11] of 20 µM and an IC50 [12] of 0.135 µM.
With `O=c1nc(NCc2ccc(F)cc2)c2cccnc2n1O` the IC50 [1] was 0.158 µM, the inhibition [2] was “inactive” and the IC50 [3] was 3.16 µM.
With `O=c1nc(Nc2ccc(-c3ccccc3)cc2)c2cccnc2n1O` the inhibition [2] was “inactive”, the AUC/dose (Rattus norvegicus) was 2934 ng·h/mL/mg and the IC50 [3] was 0.79 µM.
In the case of `O=c1nc(NCc2ccc(-c3ccccc3)cc2)c2cccnc2n1O`, the IC50 [1] is reported as 0.01 µM, the inhibition [2] is reported as “inactive” and the IC50 [3] is reported as 0.63 µM.
For `O=c1nc(Nc2ccc(CN3CCOCC3)cc2)c2cccnc2n1O`, the Papp [7] was 5 nm/s, the half-life [8] was 0.4 h and the IC50 [1] was 0.2 µM. For the same compound, the solubility [9] was 503 µM (≈ 178 µg/mL), the inhibition [2] was “inactive” and the IC50 [5] was 0.16 µM. It also gave an AUC/dose (Rattus norvegicus) of 226 ng·h/mL/mg, a clearance [10] of 4.2 L/h/kg and an IC50 [3] of 1.3 µM.
`O=c1nc(NCC2CC2)c2cccnc2n1O` showed an IC50 [1] of 0.398 µM, an IC50 [5] of 0.71 µM and an IC50 [3] of 3.9 µM.
In the case of `O=c1nc(Nc2ccc(-c3ccncc3)cc2)c2cccnc2n1O`, the IC50 [1] is reported as 0.079 µM, the inhibition [2] is reported as “inactive” and the AUC/dose (Rattus norvegicus) is reported as 1942 ng·h/mL/mg. The IC50 [3] was 1.99 µM.
Compound `O=c1nc(Nc2ccc(N3CCOCC3)cc2)c2cccnc2n1O` has a Papp [7] of 7 nm/s, a half-life [8] of 2.4 h and an IC50 [1] of 0.05 µM. The solubility [9] was 161 µM (≈ 54.6 µg/mL), the inhibition [2] was “inactive” and the IC50 [5] was 0.25 µM. It also gave an AUC/dose (Rattus norvegicus) of 314 ng·h/mL/mg, a clearance [10] of 2.7 L/h/kg and an IC50 [3] of 0.5 µM.
